Measured values taken from patent US9187790B2, “Saccharification of lignocellulosic biomass” (priority 2012, dated 2015).
Structures can show the parent of a compound that is named as a salt. Where two headings read alike, the source gives them in different places. Each block holds one compound with its values, some of them ahead of it.

What was measured:
[1] = Extraction of LiBr from LiBr-glucose solution with n-butanol/hexane; assay type: physicochemical; set-up: Glucose retained/extraction steps: unit not given here; settings: for glucose extracted into the butanol phase: butanol to hexane ratio 7/3; for Glucose retained after extraction: 200 mg glucose and 1500 mg LiBr in 1 mL water; for Glucose extracted / LiBr extracted / LiBr/sugar (separation efficiency): organic phase from the 1st extraction; for LiBr content left in the LiBr-glucose solution: butanol to hexane 7:3
From the text: A LiBr-glucose solution was first used to test the butanol extraction.

[2] = Extraction of CaBr2 from CaBr2-glucose solution with n-butanol/hexane; assay type: physicochemical
Method: As mentioned above, CaBr2 can work as effectively as LiBr to hydrolyze lignocellulosic biomass. CaBr2 was extracted from glucose with the butanol extraction method as described above (A). […] More than half of the initial glucose was extracted to the solvent phase. […] Only 10 mg glucose was extracted into 5:5 butanol/hexane.

[3] = Crystallization/precipitation of glucose by ethanol; assay type: physicochemical; settings: 400 mg glucose, 2 mL ethanol, 120° C. then cooled to room temperature
Method: Glucose was dissolved in ethanol by heating to 120° C. to facilitate dissolution. The resulting clear solution was then cooled to room temperature with stirring to allow sugar crystallization (or precipitation). Precipitated glucose was filtered and washed with ethanol. However, a small amount of glucose was found dissolved in ethanol, and therefore glucose was not fully recovered. […] The same crystallization operation was carried out as for pure glucose above. […] Almost all other sugars and LiBr were however retained in the ethanol. […] In addition, xylose may negatively affect the crystallization of glucose.

[4] = cited from earlier work
Saccharomyces cerevisiae = assay: Glucose fermentation to ethanol in the presence of residual salt; assay type: cell-based
From the text: Complete separation of LiBr from sugars is difficult and expensive. Small amounts of LiBr or CaBr2 may be retained in the sugar product stream generated by the processes of this invention. If the sugars are intended for use for fermentation, the residual salt could potentially affect the fermentation. […]

[5] = Hydrolysis of biomass in concentrated solutions of different salts; settings: for conversion/hydrolysis of polysaccharides (in words): concentration of salt 60%
From the text: Hydrolysis of biomass in different metal halide solutions was investigated.

[6] = for Conversion: 1 ml H2O, 1500 mg LiBr, 100 mg spruce powder, 2 mg acid, 140° C., 30 min
[7] = Solubility in water and organic solvent; assay type: physicochemical; settings: 60% salt in water
From the text: After the extraction, any small amount of LiBr in the sugar stream can be removed by means of ion exchange resin, crystallization, precipitation with anti-solvent, and precipitation with sodium carbonate, as described in Examples herein.

[8] = butanol:hexane 5:5 (v/v), 15 extraction steps
[9] = butanol:hexane 6:4 (v/v), 13 extraction steps
[10] = butanol:hexane 6.5:3.5 (v/v), 12 extraction steps
[11] = butanol:hexane 7:3 (v/v), 10 extraction steps
[12] = butanol:hexane 7.5:2.5 (v/v), 9 extraction steps
[13] = butanol:hexane 8:2 (v/v), 9 extraction steps
[14] = butanol:hexane 8.5:1.5 (v/v), 8 extraction steps
[15] = butanol:hexane 9:1 (v/v), 7 extraction steps
[16] = butanol:hexane 10:0 (v/v), 6 extraction steps
[17] = over the investigated concentrations (0 to 5% w/v)
[18] = salt concentration 2% (w/v), FIG. 9A

- glucose extracted into the butanol phase [1]: about 10%
- glucose extracted into the butanol phase ([1]; out of 320 mg glucose): ~30 mg
- Glucose retained/extraction steps [1, 8]: 12.6
- Glucose retained after extraction [1, 8]: 190 mg
- Glucose extracted ([1]; butanol:hexane 5:5): 2 mg
- Glucose retained/extraction steps [1, 9]: 14.5
- Glucose retained after extraction [1, 9]: 189 mg
- Glucose extracted ([1]; butanol:hexane 6:4): 3 mg
- Glucose retained/extraction steps [1, 10]: 16
- Glucose retained after extraction [1, 10]: 187 mg
- Glucose extracted ([1]; butanol:hexane 6.5:3.5): 4 mg
- Glucose retained/extraction steps [1, 11]: 18.5
- Glucose retained after extraction [1, 11]: 185 mg
- Glucose extracted ([1]; butanol:hexane 7:3): 4.5 mg
- Glucose retained/extraction steps [1, 12]: 19.4
- Glucose retained after extraction [1, 12]: 175 mg
- Glucose extracted ([1]; butanol:hexane 7.5:2.5): 5 mg
- Glucose retained/extraction steps [1, 13]: 17.8
- Glucose retained after extraction [1, 13]: 160 mg
- Glucose extracted ([1]; butanol:hexane 8:2): 5.5 mg
- Glucose retained/extraction steps [1, 14]: 17.5
- Glucose retained after extraction [1, 14]: 140 mg
- Glucose extracted ([1]; butanol:hexane 8.5:1.5): 7 mg
- Glucose retained/extraction steps [1, 15]: 16.5
- Glucose retained after extraction [1, 15]: 115 mg
- Glucose extracted ([1]; butanol:hexane 9:1): 12 mg
- Glucose retained/extraction steps [1, 16]: 16
- Glucose retained after extraction [1, 16]: 95 mg
- Glucose extracted ([1]; butanol:hexane 10:0): 20 mg
- glucose extracted into butanol/hexane ([2]; butanol/hexane 5:5, 30 extractions): 10 mg
- glucose left in the solution ([2]; butanol/hexane 5:5, 30 extractions, from 200 mg): 190 mg
- glucose left in the aqueous phase ([2]; butanol/hexane 7:3, 10 extractions, 1500 mg CaBr2, 1 mL water, 200 mg glucose): approximately 95 mg
- Precipitated glucose ([3]; Entry 0: LiBr 0 mg, water 0 μL): 400 mg
- Precipitated glucose ([3]; Entry 1: LiBr 50 mg, water 30 μL): 330 mg
- Precipitated glucose ([3]; Entry 2: LiBr 50 mg, water 50 μL): 330 mg
- Precipitated glucose ([3]; Entry 3: LiBr 50 mg, water 100 μL): 330 mg
- Precipitated glucose ([3]; Entry 4: LiBr 50 mg, water 150 μL): 330 mg
- Precipitated glucose ([3]; Entry 5: LiBr 100 mg, water 150 μL): 320 mg
- Precipitated glucose ([3]; Entry 6: LiBr 150 mg, water 150 μL): 300 mg
- Precipitated glucose ([3]; Entry 7: LiBr 200 mg, water 150 μL): 250 mg
SMILES: O=C[C@H](O)[C@@H](O)[C@H](O)[C@H](O)CO [glucose]
- solubility in n-butanol (in words) [4]: insoluble

SMILES: [Ca+2].[Cl-].[Cl-] [CaCl2, calcium chloride, reference compound]
- inhibition on sugar fermentation (Saccharomyces cerevisiae; [17]): does not appear to be inhibitory
- Conversion [5]: 70%

SMILES: [Br-].[Br-].[Ca+2] [CaBr2]
- ethanol yield (Saccharomyces cerevisiae; compared with LiBr, FIG. 8): higher
- inhibition on sugar fermentation (Saccharomyces cerevisiae; [17]): generally less inhibitory
- inhibition on sugar fermentation (Saccharomyces cerevisiae; [18]): more inhibitory than NaCl and CaCl2
- inhibition on sugar fermentation (Saccharomyces cerevisiae; salt concentration 5% (w/v)): Inhibition became more significant
- CaBr2 left in the solution ([2]; butanol/hexane 5:5, 30 extractions, from 1500 mg): 70 mg
- conversion/hydrolysis of polysaccharides (in words) [5]: complete conversion/hydrolysis

SMILES: CC(=O)O [CH3COOH, acetic acid]
- Conversion [6]: 90%

SMILES: O=[N+]([O-])O [HNO3, nitric acid]
- Conversion [6]: 100%
- effectiveness in catalyzing the hydrolysis of spruce (in words) ([6]; 60% LiBr solution): as effective as hydrochloric acid

SMILES: [Cl-].[Na+] [NaCl, reference compound]
- inhibition on sugar fermentation (Saccharomyces cerevisiae; salt concentration 5% (w/v)): showed inhibition similar to LiBr

SMILES: Cl [HCl, hydrochloric acid]
- Conversion [6]: 100%

SMILES: O=P(O)(O)O [H3PO4, phosphoric acid]
- Conversion [6]: 95%

SMILES: [Br-].[Li+] [LiBr, Lithium bromide]
- inhibition on sugar fermentation (Saccharomyces cerevisiae; [18]): more inhibitory than NaCl and CaCl2
- inhibition on sugar fermentation (Saccharomyces cerevisiae; salt concentration 5% (w/v)): the inhibition was significant
- inhibition on sugar fermentation (Saccharomyces cerevisiae; salt concentration below 5% (w/v), FIG. 7): did not have significant inhibition
- LiBr content left in the LiBr-glucose solution ([1]; after 10 extractions, from 1500 mg): 250 mg
- LiBr content left in the LiBr-glucose solution ([1]; after 20 extractions): 50 mg
- LiBr content left in the LiBr-glucose solution ([1]; after 30 extractions): 30 mg
- LiBr extracted ([1]; butanol:hexane 5:5): 141 mg
- LiBr/sugar (separation efficiency) ([1]; butanol:hexane 5:5): 71
- LiBr extracted ([1]; butanol:hexane 6:4): 152 mg
- LiBr/sugar (separation efficiency) ([1]; butanol:hexane 6:4): 51
- LiBr extracted ([1]; butanol:hexane 6.5:3.5): 195 mg
- LiBr/sugar (separation efficiency) ([1]; butanol:hexane 6.5:3.5): 49
- LiBr extracted ([1]; butanol:hexane 7:3): 216 mg
- LiBr/sugar (separation efficiency) ([1]; butanol:hexane 7:3): 48
- LiBr extracted ([1]; butanol:hexane 7.5:2.5): 231 mg
- LiBr/sugar (separation efficiency) ([1]; butanol:hexane 7.5:2.5): 46
- LiBr extracted ([1]; butanol:hexane 8:2): 252 mg
- LiBr/sugar (separation efficiency) ([1]; butanol:hexane 8:2): 46
- LiBr extracted ([1]; butanol:hexane 8.5:1.5): 277 mg
- LiBr/sugar (separation efficiency) ([1]; butanol:hexane 8.5:1.5): 40
- LiBr extracted ([1]; butanol:hexane 9:1): 310 mg
- LiBr/sugar (separation efficiency) ([1]; butanol:hexane 9:1): 26
- LiBr extracted ([1]; butanol:hexane 10:0): 383 mg
- LiBr/sugar (separation efficiency) ([1]; butanol:hexane 10:0): 19
- Conversion [5]: 100%
- conversion/hydrolysis of polysaccharides (in words) [5]: complete conversion/hydrolysis

SMILES: [Cl-].[Li+] [LiCl, reference compound]
- temperature at which the solution starts crystallizing [7]: 120 °C
- conversion/hydrolysis of polysaccharides (in words) [5]: complete conversion/hydrolysis
